Source: ChEMBL document CHEMBL5726780, “Fused tricyclic compounds as Raf kinase inhibitors” (2018)

Experiment: Time-Resolved Fluorescence Energy Transfer Assay: Compounds disclosed herein were tested against B-Raf (V600E) (PV3849, from Invitrogen) or C-Raf (Y340D/Y341D) (PV3805, from Invitrogen) in a time-resolved fluorescence energy transfer assay. The assay was carried out in reactions (10 μL) containing 0.0625 nM B-Raf or 0.5 nM C-Raf, 25 mM Tris pH7.4, 10 mM MgCl2, 0.5 mM EGTA, 0.5 mM […], 5 mM beta-glycerophosphate, 0.01% Triton X-100, 2.5 mM DTT, 0.1% BSA, 0.1 mM ATP, 13.7 nM GST-tagged MEK1 (Full-length protein with K97R mutation, recombinant protein purified from bacterial expression system) and 0-5 μM compounds disclosed herein (final concentration of 1% DMSO). The enzyme was incubated with the compounds at room temperature for 60 minutes and the reactions were initiated by the addition of ATP and GST-MEK1. After incubating at room temperature for 60 minutes, an equal volume of stop buffer containing 25 mM Tris pH7.4, 400 mM KF, 50 mM EDTA, 0.01% BSA, 0.01% Triton X-100, 1 test of Eu3+ Cryptate-conjugated rabbit polyclonal antibody anti-Phospho MEK1/2 (Ser217/221) and 1 test of d2-conjugated mouse monoclonal antibody anti-glutathione S-transferase was added to stop the reactions. Plates were sealed and incubated at room temperature for 2 hours, and then the TR-FRET signals were read on BMG PHERAstar FS instrument.

SMILES | IC50 [nM]
O=C1CCc2c(Oc3ccc4c(c3)C3C(O4)C3C(=O)OCC(=O)c3ccccc3)ccnc2N1 (centres undefined) | < 0.25
O=C1CCc2c(Oc3ccc4c(c3)C3C(O4)C3c3nc4ccc(Br)cc4[nH]3)ccnc2N1 (centres undefined) | 81
CNC(=O)Nc1cc(Oc2ccc3c(c2)C2C(O3)C2c2nc3ccc(C(F)(F)F)cc3[nH]2)ccn1 (centres undefined) | 6.5
O=C1CCc2c(Oc3ccc4c(c3)C3C(C4)C3C(=O)Nc3ccccc3S)ccnc2N1 (centres undefined) | 5.5
